# Measured values published in PubChem BioAssay (NCI).
#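 Cultured in 96-well plates, cells were exposed to test compound for 48 hours across five concentrations. GI50: concentration for 50% inhibition of growth. TGI: total growth inhibition.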
# Tests used:
# Test in all cases: growth of human tumour cells (NCI), 48 h
# OVCAR-4 ovarian = system: OVCAR-4 ovarian
# A498 renal = system: A498 renal
# NCI-H460 lung = system: NCI-H460 lung
# ACHN renal = system: ACHN renal
# NCI-H522 lung = system: NCI-H522 lung
# SR leukemia = system: SR leukemia
# CAKI-1 renal = system: CAKI-1 renal
# CCRF-CEM leukemia = system: CCRF-CEM leukemia
# HOP-92 NSCLC = system: HOP-92 NSCLC
# UO-31 renal = system: UO-31 renal
# SN12C renal = system: SN12C renal
# NCI-H226 lung = system: NCI-H226 lung
# SK-OV-3 ovarian = system: SK-OV-3 ovarian
# MDA-MB-468 breast = system: MDA-MB-468 breast
# M14 melanoma = system: M14 melanoma
# U251 CNS = system: U251 CNS
# RPMI-8226 leukemia = system: RPMI-8226 leukemia
# SF-539 CNS = system: SF-539 CNS
# NCI-H23 lung = system: NCI-H23 lung
# HCC-2998 colon = system: HCC-2998 colon
# MALME-3M melanoma = system: MALME-3M melanoma
# PC-3 prostate = system: PC-3 prostate
# UACC-62 melanoma = system: UACC-62 melanoma
# HCT-15 colon = system: HCT-15 colon
# T-47D breast = system: T-47D breast
# SNB-75 CNS = system: SNB-75 CNS
# MOLT-4 leukemia = system: MOLT-4 leukemia
# SK-MEL-5 melanoma = system: SK-MEL-5 melanoma
# 786-0 renal = system: 786-0 renal
# OVCAR-5 ovarian = system: OVCAR-5 ovarian
# A549 NSCLC = system: A549 NSCLC
# SNB-19 CNS = system: SNB-19 CNS
# DU-145 prostate = system: DU-145 prostate
# COLO 205 colon = system: COLO 205 colon
# OVCAR-8 ovarian = system: OVCAR-8 ovarian
# KM12 colon = system: KM12 colon
# UACC-257 melanoma = system: UACC-257 melanoma
# IGROV1 ovarian = system: IGROV1 ovarian
# HOP-62 NSCLC = system: HOP-62 NSCLC
# SF-268 CNS = system: SF-268 CNS
# HT29 colon = system: HT29 colon
# NCI/ADR-RES ovarian = system: NCI/ADR-RES ovarian
# K-562 leukemia = system: K-562 leukemia
# MDA-MB-435 = system: MDA-MB-435
# BT-549 breast = system: BT-549 breast
# SK-MEL-2 melanoma = system: SK-MEL-2 melanoma
# SF-295 CNS = system: SF-295 CNS
# MCF7 breast = system: MCF7 breast
# SK-MEL-28 melanoma = system: SK-MEL-28 melanoma
# OVCAR-3 ovarian = system: OVCAR-3 ovarian
# HL-60(TB) leukemia = system: HL-60(TB) leukemia
# TK-10 renal = system: TK-10 renal
# EKVX NSCLC = system: EKVX NSCLC
# RXF 393 renal = system: RXF 393 renal
# HCT-116 colon = system: HCT-116 colon
structure (smiles),measurement,setting,value
COc1ccc2[nH]c(=O)c(CSc3nccc(-c4ccc(OC)c(OC)c4)n3)cc2c1,GI50,OVCAR-4 ovarian,16.5 µM
same,TGI,OVCAR-4 ovarian,78.2 µM
same,GI50,A498 renal,14.7 µM
same,TGI,A498 renal,37.5 µM
same,GI50,NCI-H460 lung,17.4 µM
same,TGI,NCI-H460 lung,40.3 µM
same,GI50,ACHN renal,12.1 µM
same,TGI,ACHN renal,24.4 µM
same,GI50,NCI-H522 lung,16.4 µM
same,TGI,NCI-H522 lung,37.3 µM
same,GI50,SR leukemia,15.9 µM
same,TGI,SR leukemia,> 100 µM
same,GI50,CAKI-1 renal,11 µM
same,TGI,CAKI-1 renal,32.8 µM
same,GI50,CCRF-CEM leukemia,10.5 µM
same,TGI,CCRF-CEM leukemia,> 100 µM
same,GI50,HOP-92 NSCLC,2.01 µM
same,TGI,HOP-92 NSCLC,8.63 µM
same,GI50,UO-31 renal,10.4 µM
same,TGI,UO-31 renal,23.7 µM
same,GI50,SN12C renal,11.2 µM
same,TGI,SN12C renal,42.7 µM
same,GI50,NCI-H226 lung,12.7 µM
same,TGI,NCI-H226 lung,40.8 µM
same,GI50,SK-OV-3 ovarian,25.5 µM
same,TGI,SK-OV-3 ovarian,60.7 µM
same,GI50,MDA-MB-468 breast,5.84 µM
same,TGI,MDA-MB-468 breast,32.2 µM
same,GI50,M14 melanoma,25.5 µM
same,TGI,M14 melanoma,74.4 µM
same,GI50,U251 CNS,22.4 µM
same,TGI,U251 CNS,> 100 µM
same,GI50,RPMI-8226 leukemia,6.26 µM
same,TGI,RPMI-8226 leukemia,88 µM
same,GI50,SF-539 CNS,12.3 µM
same,TGI,SF-539 CNS,25.7 µM
same,GI50,NCI-H23 lung,17.6 µM
same,TGI,NCI-H23 lung,45.4 µM
same,GI50,HCC-2998 colon,18.1 µM
same,TGI,HCC-2998 colon,57.6 µM
same,GI50,MALME-3M melanoma,19.5 µM
same,TGI,MALME-3M melanoma,40 µM
same,GI50,PC-3 prostate,11.9 µM
same,TGI,PC-3 prostate,25.7 µM
same,GI50,UACC-62 melanoma,15 µM
same,TGI,UACC-62 melanoma,35.3 µM
same,GI50,HCT-15 colon,15.4 µM
same,TGI,HCT-15 colon,46.9 µM
same,GI50,T-47D breast,10.9 µM
same,TGI,T-47D breast,67.4 µM
same,GI50,SNB-75 CNS,3.43 µM
same,TGI,SNB-75 CNS,25.9 µM
same,GI50,MOLT-4 leukemia,9.07 µM
same,TGI,MOLT-4 leukemia,42.9 µM
same,GI50,SK-MEL-5 melanoma,9.51 µM
same,TGI,SK-MEL-5 melanoma,37.4 µM
same,GI50,786-0 renal,15.4 µM
same,TGI,786-0 renal,33.8 µM
same,GI50,OVCAR-5 ovarian,19.1 µM
same,TGI,OVCAR-5 ovarian,53.5 µM
same,GI50,A549 NSCLC,20.9 µM
same,TGI,A549 NSCLC,91.5 µM
same,GI50,SNB-19 CNS,14.5 µM
same,TGI,SNB-19 CNS,36 µM
same,GI50,DU-145 prostate,14.3 µM
same,TGI,DU-145 prostate,32.4 µM
same,GI50,COLO 205 colon,32.1 µM
same,TGI,COLO 205 colon,> 100 µM
same,GI50,OVCAR-8 ovarian,21 µM
same,TGI,OVCAR-8 ovarian,> 100 µM
same,GI50,KM12 colon,21.8 µM
same,TGI,KM12 colon,62.1 µM
same,GI50,UACC-257 melanoma,28.9 µM
same,TGI,UACC-257 melanoma,99.9 µM
same,GI50,IGROV1 ovarian,17.7 µM
same,TGI,IGROV1 ovarian,41.6 µM
same,GI50,HOP-62 NSCLC,18.4 µM
same,TGI,HOP-62 NSCLC,51.3 µM
same,GI50,SF-268 CNS,14.7 µM
same,TGI,SF-268 CNS,47.8 µM
same,GI50,HT29 colon,17.7 µM
same,TGI,HT29 colon,38.5 µM
same,GI50,NCI/ADR-RES ovarian,14.2 µM
same,TGI,NCI/ADR-RES ovarian,41.2 µM
same,GI50,K-562 leukemia,7.33 µM
same,TGI,K-562 leukemia,29.6 µM
same,GI50,MDA-MB-435,23.7 µM
same,TGI,MDA-MB-435,73.8 µM
same,GI50,BT-549 breast,12.5 µM
same,TGI,BT-549 breast,37.1 µM
same,GI50,SK-MEL-2 melanoma,15.1 µM
same,TGI,SK-MEL-2 melanoma,51.3 µM
same,GI50,SF-295 CNS,17.2 µM
same,TGI,SF-295 CNS,43 µM
same,GI50,MCF7 breast,18.7 µM
same,TGI,MCF7 breast,43 µM
same,GI50,SK-MEL-28 melanoma,20.3 µM
same,TGI,SK-MEL-28 melanoma,41.5 µM
same,GI50,OVCAR-3 ovarian,15.2 µM
same,TGI,OVCAR-3 ovarian,37.3 µM
same,GI50,HL-60(TB) leukemia,35.2 µM
same,TGI,HL-60(TB) leukemia,> 100 µM
same,GI50,TK-10 renal,13.3 µM
same,TGI,TK-10 renal,33.7 µM
same,GI50,EKVX NSCLC,12.9 µM
same,TGI,EKVX NSCLC,44 µM
same,GI50,RXF 393 renal,6.08 µM
same,TGI,RXF 393 renal,40.1 µM
same,GI50,HCT-116 colon,15.7 µM
same,TGI,HCT-116 colon,49.2 µM
